In brackets after ≈: the same amount, converted by molar mass.
Test: physchem
Procedure: In situ dissolution experiments were performed with a μDISS Profiler apparatus (pION Inc., MA, USA). The system consists of an integrated diode array spectrophotometer connected to a fiber optic UV probe located directly in the reaction vessel (20 ml scintillation vial) and measures the concentration as a function of time, without filtering the solution. Measurement of the dissolution kinetics was carried out at 220 nm and 270 nm, which are optimal for the UV detection of resveratrol and […], respectively. The concentrations of the compounds in the dissolution media (water, buffer pH=4, pH=6) were calculated by means of a standard curve.
The calibration curve was obtained in a mixture of ethanol and water at 8/2 (vol/vol). Stock solutions of resveratrol and resveratrol-piperazine co-crystal, Form 1, respectively, were prepared at 10 mg/ml. The calibration was performed in a 20 ml volume.
The dissolution was performed in 25 mM phosphate buffer (Na2HPO4/KH2PO4) at pH 6, at a concentration of 1 mg/ml resveratrol and resveratrol-piperazine co-crystal, Form 1, respectively. An amount of 20 mg of each compound was dispensed in 20 ml volume of buffer. The process was monitored for 90 minutes.
The calibration was performed in a mixture of ethanol and sodium acetate buffer pH 4.0 at 8/2 (vol/vol) and final concentration of 25 mM sodium acetate. Stock solutions of resveratrol and resveratrol-piperazine co-crystal, Form 1, respectively, were prepared at 10 mg/ml in the solvent mixture. The calibration was performed in 20 ml volume.
The dissolution was performed in 25 mM sodium acetate buffer at pH 4.0, at a concentration of 1 mg/ml resveratrol and resveratrol-piperazine co-crystal, Form 1 (RP1), respectively. An amount of 20 mg compound was dispensed in 20 ml volume of buffer. The process was monitored for 90 minutes.

Row | Compound | solubility at 90 min (aqueous buffer, thermodynamic from solid) | aqueous solubility | time maintained in solution, pH 4 buffer versus pH 6 buffer (FIG. 14 and FIG. 13) | solubility compared to that of resveratrol (pH 4)
1 | Oc1ccc(C=Cc2cc(O)cc(O)c2)cc1 [resveratrol] | 30 µg/mL (≈ 131 µM) |  |  | 
2 | C1CNCCN1.Oc1ccc(C=Cc2cc(O)cc(O)c2)cc1 [resveratrol-piperazine co-crystal, Form 1] |  | 65-100 micrograms/ml | longer than in the case of the pH 6 buffer | three times higher

Reference: patent US11560358B2, “Resveratrol-piperazine co-crystals” (LETAVIS AB, priority 2018, dated 2023)
